# From patent US6355799B1, “Substituted benzene compounds, process for their preparation, and herbicidal and defoliant compositions containing them” (ISK Americas Incorporated, priority 1997, dated 2002)
# How the values were obtained:
# Format in all cases: in vivo
# [1] = tested on: field corn (Zea mays L., var. Dekalb 535, CORN); assay: Pre-emerge test, crop safety; conditions: crop damage, pre-emerge, phytotoxicity rating 0-100 at 14 days after application
# Outline: (§1)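 Plants grown in 10 cm pots of sandy loam mix received acetone-dissolved compounds through a moving flat-fan nozzle. Doses ranged from 15 to 1000 g ai/ha. Pre-emerge pots were seeded one day earlier, post-emerge pots 8–21 days earlier. Fourteen days on, each pot was graded 0–100 for damage.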
# [2] = tested on: upland rice (Oryza sp., var. Tebonnet, RICE); assay: Pre-emerge test, crop safety; conditions: crop damage, pre-emerge, phytotoxicity rating 0-100 at 14 days after application
# Outline: as §1
# [3] = tested on: redroot pigweed (Amaranthus retroflexus, AMARE); assay: Post-emerge test, greenhouse herbicide activity screening; conditions: post-emerge, phytotoxicity rating 0-100 at 14 days after application
# Outline: (§2)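 Sandy loam pots; pre-emerge: sown 1 d pre-spray, surface-watered after, then bottom-watered. Post-emerge: sown 8–21 d before, 2–3 leaf stage, + 0.25% v/v NIS, bottom-watered. Acetone, 187 l/ha track spray, 15–1000 g ai/ha. 0–100 injury score, day 14.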
# [4] = tested on: green foxtail (Setaria viridis, SETVI); assay: as above; conditions: post-emerge, phytotoxicity rating 0-100 at 14 days after application
# Outline: as §2
# [5] = tested on: johnsongrass (Sorghum halepense, SORHA); assay: as above; conditions: post-emerge, phytotoxicity rating 0-100 at 14 days after application
# Outline: as §2
# [6] = tested on: large crabgrass (Digitaria sanguinalis, DIGSA); assay: as above; conditions: post-emerge, phytotoxicity rating 0-100 at 14 days after application
# Outline: as §2
# [7] = tested on: lambsquarters (Chenopodium album, CHEAL); assay: as above; conditions: post-emerge, phytotoxicity rating 0-100 at 14 days after application
# Outline: as §2
# [8] = tested on: velvetleaf (Abutilon theophrasti, ABUTH); assay: as above; conditions: post-emerge, phytotoxicity rating 0-100 at 14 days after application
# Outline: as §2
# [9] = tested on: ivyleaf morningglory (Ipomoea hederacea, IPOHE); assay: as above; conditions: post-emerge, phytotoxicity rating 0-100 at 14 days after application
# Outline: as §2
# [10] = tested on: barnyardgrass (Echinochloa crus-galli, ECHCG); assay: as above; conditions: post-emerge, phytotoxicity rating 0-100 at 14 days after application
# Outline: as §2
# [11] = tested on: sicklepod (Cassia obtusifolia, CASOB); assay: as above; conditions: post-emerge, phytotoxicity rating 0-100 at 14 days after application
# Outline: as §2
# [12] = tested on: green foxtail (Setaria viridis, SETVI); assay: Pre-emerge test, greenhouse herbicide activity screening; conditions: pre-emerge, phytotoxicity rating 0-100 at 14 days after application
# Outline: as §1
# [13] = tested on: large crabgrass (Digitaria sanguinalis, DIGSA); assay: as above; conditions: pre-emerge, phytotoxicity rating 0-100 at 14 days after application
# Outline: as §1
# [14] = tested on: lambsquarters (Chenopodium album, CHEAL); assay: as above; conditions: pre-emerge, phytotoxicity rating 0-100 at 14 days after application
# Outline: as §1
# [15] = tested on: velvetleaf (Abutilon theophrasti, ABUTH); assay: as above; conditions: pre-emerge, phytotoxicity rating 0-100 at 14 days after application
# Outline: as §1
# [16] = tested on: ivyleaf morningglory (Ipomoea hederacea, IPOHE); assay: as above; conditions: pre-emerge, phytotoxicity rating 0-100 at 14 days after application
# Outline: as §1
# [17] = tested on: barnyardgrass (Echinochloa crus-galli, ECHCG); assay: as above; conditions: pre-emerge, phytotoxicity rating 0-100 at 14 days after application
# Outline: as §1
# [18] = tested on: sicklepod (Cassia obtusifolia, CASOB); assay: as above; conditions: pre-emerge, phytotoxicity rating 0-100 at 14 days after application
# Outline: as §1
# [19] = tested on: redroot pigweed (Amaranthus retroflexus, AMARE); assay: as above; conditions: pre-emerge, phytotoxicity rating 0-100 at 14 days after application
# Outline: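 Herbicidal damage is scored 0 (none) to 100 (complete plant death) two weeks after a simulated field spray. Rates span 15–1000 g ai/ha, delivered in acetone at 187 l/ha. For post-emergence treatments, plants have 2–3 leaves and the spray carries 0.25% v/v non-ionic surfactant.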
# [20] = tested on: field corn (Zea mays L., var. Dekalb 535, CORN); assay: Post-emerge test, crop safety; conditions: post-emerge, crop damage rating 0-100 at 14 days after application
# Outline: (§3)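 Each test used a mechanized track sprayer delivering 187 l/ha of acetone solution at 15–1000 g ai/ha. Post-emerge foliage at 2–3 leaves was treated with added 0.25% v/v non-ionic surfactant and bottom-watered only. Injury was assessed on day 14, where 100 means total kill.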
# [21] = tested on: upland rice (Oryza sp., var. Tebonnet, RICE); assay: Post-emerge test, crop safety; conditions: post-emerge, crop damage rating 0-100 at 14 days after application
# Outline: as §3
structure (smiles),measurement,setting,value
COc1c(Cl)cc(F)c(-n2nc(C)n(C(F)F)c2=O)c1NC(=O)c1ccc(F)cc1F [Compound 6-14],Pre-emerge Herbicidal Activity CORN,[1]; rate 63 g ai/ha,90
same,Pre-emerge Herbicidal Activity CORN,[1]; rate 250 g ai/ha,100
same,Pre-emerge Herbicidal Activity RICE,[2]; rate 63 g ai/ha,90
same,Pre-emerge Herbicidal Activity RICE,[2]; rate 250 g ai/ha,100
same,Post-emerge Herbicidal Activity AMARE,[3]; 63 g ai/ha,80
same,Post-emerge Herbicidal Activity AMARE,[3]; 250 g ai/ha,100
same,Post-emerge Herbicidal Activity SETVI,[4]; 63 g ai/ha,90
same,Post-emerge Herbicidal Activity SETVI,[4]; 250 g ai/ha,100
same,Post-emerge Herbicidal Activity SORHA,[5]; 63 g ai/ha,30
same,Post-emerge Herbicidal Activity SORHA,[5]; 250 g ai/ha,90
same,Post-emerge Herbicidal Activity DIGSA,[6]; 63 g ai/ha,60
same,Post-emerge Herbicidal Activity DIGSA,[6]; 250 g ai/ha,90
same,Post-emerge Herbicidal Activity CHEAL,[7]; 63 g ai/ha,100
same,Post-emerge Herbicidal Activity CHEAL,[7]; 250 g ai/ha,100
same,Post-emerge Herbicidal Activity ABUTH,[8]; 63 g ai/ha,100
same,Post-emerge Herbicidal Activity ABUTH,[8]; 250 g ai/ha,100
same,Post-emerge Herbicidal Activity IPOHE,[9]; 63 g ai/ha,100
same,Post-emerge Herbicidal Activity IPOHE,[9]; 250 g ai/ha,100
same,Post-emerge Herbicidal Activity ECHCG,[10]; 63 g ai/ha,20
same,Post-emerge Herbicidal Activity ECHCG,[10]; 250 g ai/ha,90
same,Post-emerge Herbicidal Activity CASOB,[11]; 63 g ai/ha,60
same,Post-emerge Herbicidal Activity CASOB,[11]; 250 g ai/ha,90
same,Pre-emerge Herbicidal Activity SETVI,[12]; rate 63 g ai/ha,100
same,Pre-emerge Herbicidal Activity SETVI,[12]; rate 250 g ai/ha,100
same,Pre-emerge Herbicidal Activity DIGSA,[13]; rate 63 g ai/ha,100
same,Pre-emerge Herbicidal Activity DIGSA,[13]; rate 250 g ai/ha,100
same,Pre-emerge Herbicidal Activity CHEAL,[14]; rate 63 g ai/ha,100
same,Pre-emerge Herbicidal Activity CHEAL,[14]; rate 250 g ai/ha,100
same,Pre-emerge Herbicidal Activity ABUTH,[15]; rate 63 g ai/ha,100
same,Pre-emerge Herbicidal Activity ABUTH,[15]; rate 250 g ai/ha,100
same,Pre-emerge Herbicidal Activity IPOHE,[16]; rate 63 g ai/ha,60
same,Pre-emerge Herbicidal Activity IPOHE,[16]; rate 250 g ai/ha,100
same,Pre-emerge Herbicidal Activity ECHCG,[17]; rate 63 g ai/ha,100
same,Pre-emerge Herbicidal Activity ECHCG,[17]; rate 250 g ai/ha,100
same,Pre-emerge Herbicidal Activity CASOB,[18]; rate 63 g ai/ha,40
same,Pre-emerge Herbicidal Activity CASOB,[18]; rate 250 g ai/ha,60
same,Pre-emerge Herbicidal Activity AMARE,[19]; rate 63 g ai/ha,90
same,Pre-emerge Herbicidal Activity AMARE,[19]; rate 250 g ai/ha,100
same,Post-emerge Herbicidal Activity CORN,[20]; 63 g ai/ha,60
same,Post-emerge Herbicidal Activity CORN,[20]; 250 g ai/ha,100
same,Post-emerge Herbicidal Activity RICE,[21]; 63 g ai/ha,60
same,Post-emerge Herbicidal Activity RICE,[21]; 250 g ai/ha,90
Cc1nn(-c2c(F)cc(Cl)cc2NC(=O)c2ccc(F)cc2F)c(=O)n1C(F)F [Compound 6-23],Pre-emerge Herbicidal Activity CORN,[1]; rate 63 g ai/ha,0
same,Pre-emerge Herbicidal Activity CORN,[1]; rate 250 g ai/ha,0
same,Pre-emerge Herbicidal Activity RICE,[2]; rate 63 g ai/ha,0
same,Pre-emerge Herbicidal Activity RICE,[2]; rate 250 g ai/ha,0
same,Post-emerge Herbicidal Activity AMARE,[3]; 63 g ai/ha,20
same,Post-emerge Herbicidal Activity AMARE,[3]; 250 g ai/ha,85
same,Post-emerge Herbicidal Activity SETVI,[4]; 63 g ai/ha,0
same,Post-emerge Herbicidal Activity SETVI,[4]; 250 g ai/ha,30
same,Post-emerge Herbicidal Activity SORHA,[5]; 63 g ai/ha,0
same,Post-emerge Herbicidal Activity SORHA,[5]; 250 g ai/ha,0
same,Post-emerge Herbicidal Activity DIGSA,[6]; 63 g ai/ha,0
same,Post-emerge Herbicidal Activity DIGSA,[6]; 250 g ai/ha,10
same,Post-emerge Herbicidal Activity CHEAL,[7]; 63 g ai/ha,20
same,Post-emerge Herbicidal Activity CHEAL,[7]; 250 g ai/ha,70
same,Post-emerge Herbicidal Activity ABUTH,[8]; 63 g ai/ha,40
same,Post-emerge Herbicidal Activity ABUTH,[8]; 250 g ai/ha,55
same,Post-emerge Herbicidal Activity IPOHE,[9]; 63 g ai/ha,10
same,Post-emerge Herbicidal Activity IPOHE,[9]; 250 g ai/ha,30
same,Post-emerge Herbicidal Activity ECHCG,[10]; 63 g ai/ha,0
same,Post-emerge Herbicidal Activity ECHCG,[10]; 250 g ai/ha,0
same,Post-emerge Herbicidal Activity CASOB,[11]; 63 g ai/ha,0
same,Post-emerge Herbicidal Activity CASOB,[11]; 250 g ai/ha,10
same,Pre-emerge Herbicidal Activity SETVI,[12]; rate 63 g ai/ha,0
same,Pre-emerge Herbicidal Activity SETVI,[12]; rate 250 g ai/ha,60
same,Pre-emerge Herbicidal Activity DIGSA,[13]; rate 63 g ai/ha,0
same,Pre-emerge Herbicidal Activity DIGSA,[13]; rate 250 g ai/ha,10
same,Pre-emerge Herbicidal Activity CHEAL,[14]; rate 63 g ai/ha,30
same,Pre-emerge Herbicidal Activity CHEAL,[14]; rate 250 g ai/ha,100
same,Pre-emerge Herbicidal Activity ABUTH,[15]; rate 63 g ai/ha,0
same,Pre-emerge Herbicidal Activity ABUTH,[15]; rate 250 g ai/ha,50
same,Pre-emerge Herbicidal Activity IPOHE,[16]; rate 63 g ai/ha,0
same,Pre-emerge Herbicidal Activity IPOHE,[16]; rate 250 g ai/ha,20
same,Pre-emerge Herbicidal Activity ECHCG,[17]; rate 63 g ai/ha,0
same,Pre-emerge Herbicidal Activity ECHCG,[17]; rate 250 g ai/ha,0
same,Pre-emerge Herbicidal Activity CASOB,[18]; rate 63 g ai/ha,0
same,Pre-emerge Herbicidal Activity CASOB,[18]; rate 250 g ai/ha,10
same,Pre-emerge Herbicidal Activity AMARE,[19]; rate 63 g ai/ha,50
same,Pre-emerge Herbicidal Activity AMARE,[19]; rate 250 g ai/ha,100
same,Post-emerge Herbicidal Activity CORN,[20]; 63 g ai/ha,0
same,Post-emerge Herbicidal Activity CORN,[20]; 250 g ai/ha,15
same,Post-emerge Herbicidal Activity RICE,[21]; 63 g ai/ha,0
same,Post-emerge Herbicidal Activity RICE,[21]; 250 g ai/ha,15
